Values quoted from earlier work in patent US7067320B2, “Sensor for luminescense-optical determination of an analyte” (Roche Diagnostics Operations, Inc., priority 2000, dated 2006).
Read-outs that look alike come from different tables or passages of the source.

Row | Compound | pKa | pKa (second value printed in the same cell)
1 | O=C1C=CC(=Nc2ccc(O)cc2)C=C1Cl [o-chlorophenol-indophenol] | 7.1 | –
2 | O=C1OC(c2ccc(O)c3ccccc23)(c2ccc(O)c3ccccc23)c2ccccc21 [Naphthol-phthalein] | 6.7 | 7.9
3 | O=S1(=O)OC(c2cc(Br)c(O)c(Br)c2)(c2cc(Br)c(O)c(Br)c2)c2ccccc21 [Bromophenol blue] | 3.8 | –
4 | Cc1c(C2(c3cc(C(C)C)c(O)c(Br)c3C)OS(=O)(=O)c3ccccc32)cc(C(C)C)c(O)c1Br [Bromothymol blue] | 6.7 | –
5 | Dibromoxylenol blue | 7.6 | –
6 | Cc1ccc(O)c(N=Nc2c(O)cc(S(=O)(=O)O)c3ccccc23)c1 [Calmagit] | 8.0 | –
